Laboratory results as given in patent publication US12503455B2, “Nucleic acid-binding photoprobes and uses thereof” (Arrakis Therapeutics, Inc., priority 2017, dated 2025).

Key:
Type in all cases: binding
Aptamer 21 [1] = test: Capture of Aptamer 21 with click-biotinylated probes; conditions: Aptamer 21 or Aptamer 21-E
Experimental: A 50 μL sample of 1 μM folded Aptamer 21 or Aptamer 21-E solution in folding buffer (20 mM TrisHCl pH 8, 100 mM KCl, 3 mM MgCl2) was added to a 0.5 μL aliquot of 0.5 mM ARK-729, ARK-2058, ARK-816, or ARK-2059 in DMSO or a DMSO-only control. The solution was incubated at 37° C. for 1 h and then irradiated with long wave UV light (˜365 nm) for 30 min in a UV crosslinker (Fisher Scientific). To this solution was added 0.5 μL of 10 mM DBCO-biotin (Click Chemistry Tools, cat. #A105) and 2 μL of 0.5 M EDTA pH 8 and then the solution was incubated at 65° C. for 2 h. The RNA was ethanol precipitated by adding 35 μL of water, 2 uL of 5 mg/mL glycogen, 10 μL 3 M NaOAc pH 5, and 250 μL ethanol, incubating at −80° C. for 1 h, centrifuging at 20000×g for 30 min, washing the pellet twice with 500 μL of 70% ethanol, and then air drying the pellet.
The RNA pellet was redissolved in 50 μL of 1× bind/wash buffer (20 mM TrisHCl pH 7, 100 mM KCl, 0.1% Tween-20). A 50 μL aliquot of MyOne Streptavidin C1 Dynabead slurry (Thermo) was captured on a magnet, washed twice with 50 μL of 1× bind/wash buffer, and then resuspended in 50 μL of the crosslinked RNA sample. The bead suspension was rotated at room temperature for 30 min and then washed twice with 100 μL of 1× bind/wash solution. […]

Aptamer 21-E = test: Photo-crosslinking of ARK-547 with negative control Aptamer 21-E
Experimental: A 9.5 μL sample of folded RNA (2.6 μM) in buffer (20 mM TrisHCl pH 8, 100 mM KCl, 3 mM MgCl2) was added to a 0.5 μL aliquot of 1 mM ARK-547 in DMSO. The reaction was incubated for 10 min at 37° C., irradiated with long wave UV light (˜365 nm) for 30 min in a UV crosslinker (Fisher Scientific), and then kept on ice.
The samples of cross-linked RNA were diluted to a final volume of 20 μL and final reaction conditions of 1×T4 RNA ligase buffer (New England Biolabs), 5 U/μL T4 RNA ligase 2, truncated KQ (New England Biolabs), 16.5% PEG-8000, and 0.5 μM universal miRNA cloning linker (New England Biolabs). The reaction was incubated in a thermal cycler for 2.5 h cycling between 5 min at 16° C. and 3 min at 25° C. The RNA was then purified using Agencourt AMPure XP beads (Beckman Coulter) using the standard protocol from the manufacturer. […]
To remove excess primer, the sample was mixed with 4.5 μL of ExoSAP-IT, incubated at 37° C. for 15 min, and then quenched with 1 μL of 0.5 M EDTA pH 8. […] The concentration was determined by absorbance at 260 nm. […]
The concentrations of different PCR products were measured using the Denovix dsDNA fluorescence quantitation kit (Denovix) and multiplexed at equal concentrations with a 20% PhiX spike-in. Sequencing was performed on an Illumina MiSeq with 150 bp paired-end reads using the standard manufacturer protocol.

Aptamer 21 [2] = test: LC-MS analysis of cross-linked RNA
Experimental: (§1) Folded RNA (1.33 μM) was incubated with or without the photoaffinity probe (20 μM) in total 100 μL of buffer (20 mM TrisHCl pH 8, 100 mM KCl, 3 mM MgCl2) with 2% DMSO for 30 min at 37° C. to allow binding to come to equilibrium. The sample was then irradiated with long wave UV light (˜365 nm) for 30 min in a UV crosslinker (Fisher Scientific).
The RNA was then precipitated by adding 10 μL of 3 M sodium acetate pH 5 and 275 μL ethanol, cooling to −80° C. for 1 h, and then centrifuging at 20,500×g at 4° C. for 30 min. The RNA pellet was washed with 500 μL of 70% ethanol, air dried for 5 min, and then resuspended in 120 μL of water.
50 μL of RNA sample was injected onto Clarity 2.6 μm Oligo X-T column (50*2.1 mm, 60° C.), and the gradient and flowrate were as follows: 95% A/5% B to 75% A/25% B over 5 min, flowrate: 400 μL/min; 75% A/25% B to 30% A/70% B over 1 min, flowrate: 400 μL/min; 100% D over 1 min, flowrate: 500 μL/min; 95% A/5% B over 2 min, flowrate: 500 μL/min (A: 1% HFIPA (hexafluoroisopropyl alcohol), 0.1% DIEA (diisopropylethylamine), 1 μM EDTA (ethylenediamine tetraacetic acid) in H2O; B: 0.075% HFIPA, 0.0375% DIEA, 1 μM EDTA in 65/35 MeCN/H2O; D: 40/40/20% MeOH/MeCN/H2O); The LCMS instrument was a Thermo Finnigan LTQ, and ProMass deconvolution software coupled with Xcaliber were used for all data processing.

Aptamer 21 [3] = test: Reverse transcriptase pausing (drop-off) gel assay of photo-crosslinking to Aptamer 21
Experimental: A solution of RNA at 2 to 5 μM in nuclease-free water was heated to 95° C. for 3 min and then cooled on ice for 2 min. This solution was diluted with ½ volume of 3×RNA folding buffer (60 mM TrisHCl pH 8, 300 mM KCl, 9 mM MgCl2) and incubated at 37° C. for 20 min. Folding was carried out immediately before use of the RNA in each experiment. In cases where a mixture of RNA molecules was used in vitro the RNAs were folded separately and then combined prior to the probing experiment.
as §1, with “RNA (1” for “RNA (1.33”, “with” for “with or without”, “probe (10” for “probe (20”, “total 25” for “total 100”, “with 2.5%” for “with 2%”
A 3.75 μL aliquot of 10 μM reverse transcription primer was added to the cross-linked RNA sample, which was then incubated for 5 min at 65° C. and then cooled on ice. The sample was then diluted to a final volume of 60 μL and final buffer concentration of 1× Protoscript-II buffer (New England Biolabs), 0.5 mM dNTPs, 10 mM DTT, 0.4 U/μL RNase Inhibitor (New England Biolabs), and 10 U/μL Protoscript-II (New England Biolabs). The reaction was incubated at 45° C. for 2 h, 65° C. for 20 min, and then 4° C.
The RNA was hydrolyzed by the addition of 4.8 μL of 2.5 M NaOH and heating at 95° C. for 5 min. The reaction was quenched by the addition of 0.9 μL of acetic acid. The cDNA was precipitated by the addition of 6.6 μL of 3 M sodium acetate pH 5 and 181 μL ethanol, cooling to −80° C. for 1 h, and then centrifuging at 20,500×g at 4° C. for 30 min. The cDNA pellet was washed twice with 500 μL of 70% ethanol and then air dried for 5 min.
The cDNA pellet was resuspended in 12 μL of 1×TBE-urea sample loading buffer (Bio-Rad) and heated to 95° C. for 5 min. The sample was then run on a pre-cast 8.6×6.7 cm TBE-urea 10% PAGE gel (Bio-Rad) at 120 V until the lower bromophenol blue dye reached the bottom of the gel. The gel was stained with 1×SYBR-gold (Invitrogen) in 1×TBE buffer at room temperature for 20 min covered from light. The gel fluorescence was imaged on an Azure c600 instrument.

| binding to negative control Aptamer 21-E (Aptamer 21-E) | cross-linking with Apt21 RNA (RT pausing) (Aptamer 21 [3]; 1 uM RNA, 10 uM probe (9 uM PreQ1 probe), UV ~360 nm) | SMILES | RT pausing peaks after click-biotinylation and avidin bead enrichment (Aptamer 21 [1]) | photoadduct with Aptamer 21-E (Aptamer 21-E) | covalent modification of the RNA by LC-MS (Aptamer 21 [2]) [%] | shortened sequences produced in PEARL-seq reverse transcriptase pausing gel assay (Aptamer 21 [3]; FIG. 52) |
| --- | --- | --- | --- | --- | --- | --- |
| – | – | COC(=O)C1=C(COCc2cn(CCOCCOCCNC(=O)c3cc(CN=[N+]=[N-])cc(N=[N+]=[N-])c3)nn2)NC(c2ccncc2)=NC1c1ccc(F)cc1Cl (stereo not drawn) [ARK-729] | RT pausing peaks specific to Aptamer 21 | – | – | – |
| does not bind | specific and UV-dependent cross-linking | COC(=O)C1=C(COCc2cn(CCOCCOCCNC(=O)CCC3(C)N=N3)nn2)NC(c2ccncc2)=NC1c1ccc(F)cc1Cl (stereo not drawn) [ARK-547] | – | no photoadduct | 5 | shortened sequences of particular lengths |
